Assay results published in publication PMC6704710, “Preclinical evaluation of 3D185, a novel potent inhibitor of FGFR1/2/3 and CSF-1R, in FGFR-dependent and macrophage-dominant cancer models” (Journal of Experimental & Clinical Cancer Research : CR, 2019).

Tests used:
Assay in all cases: Eurofins kinase panel
Format in all cases: biochemical
Details in all cases: read-out: Inhibition rate (%)
CLIK1(h) = biological target: T1, CLIK1(h) (Homo sapiens, UniProt Q8TDR2)
T1 construct: purchased Eurofins (KinaseProfiler)
T1 sequence (Q8TDR2 whole entry): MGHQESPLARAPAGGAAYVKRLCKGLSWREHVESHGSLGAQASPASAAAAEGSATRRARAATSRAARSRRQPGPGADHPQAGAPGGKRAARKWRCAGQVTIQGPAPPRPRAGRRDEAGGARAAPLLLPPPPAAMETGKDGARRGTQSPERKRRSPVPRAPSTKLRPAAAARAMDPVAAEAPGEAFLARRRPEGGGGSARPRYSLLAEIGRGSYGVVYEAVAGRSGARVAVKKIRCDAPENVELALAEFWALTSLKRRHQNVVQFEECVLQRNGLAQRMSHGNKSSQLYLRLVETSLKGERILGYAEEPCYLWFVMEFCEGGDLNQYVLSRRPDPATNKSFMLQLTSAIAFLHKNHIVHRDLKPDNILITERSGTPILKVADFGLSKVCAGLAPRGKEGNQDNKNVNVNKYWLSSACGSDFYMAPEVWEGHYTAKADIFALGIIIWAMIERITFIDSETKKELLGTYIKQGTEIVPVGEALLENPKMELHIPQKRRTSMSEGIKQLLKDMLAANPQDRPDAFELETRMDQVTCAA

DYRK3(h) = biological target: T2, DYRK3(h) (Homo sapiens, UniProt O43781)
T2 construct: purchased Eurofins (KinaseProfiler)
T2 sequence (O43781 1-588): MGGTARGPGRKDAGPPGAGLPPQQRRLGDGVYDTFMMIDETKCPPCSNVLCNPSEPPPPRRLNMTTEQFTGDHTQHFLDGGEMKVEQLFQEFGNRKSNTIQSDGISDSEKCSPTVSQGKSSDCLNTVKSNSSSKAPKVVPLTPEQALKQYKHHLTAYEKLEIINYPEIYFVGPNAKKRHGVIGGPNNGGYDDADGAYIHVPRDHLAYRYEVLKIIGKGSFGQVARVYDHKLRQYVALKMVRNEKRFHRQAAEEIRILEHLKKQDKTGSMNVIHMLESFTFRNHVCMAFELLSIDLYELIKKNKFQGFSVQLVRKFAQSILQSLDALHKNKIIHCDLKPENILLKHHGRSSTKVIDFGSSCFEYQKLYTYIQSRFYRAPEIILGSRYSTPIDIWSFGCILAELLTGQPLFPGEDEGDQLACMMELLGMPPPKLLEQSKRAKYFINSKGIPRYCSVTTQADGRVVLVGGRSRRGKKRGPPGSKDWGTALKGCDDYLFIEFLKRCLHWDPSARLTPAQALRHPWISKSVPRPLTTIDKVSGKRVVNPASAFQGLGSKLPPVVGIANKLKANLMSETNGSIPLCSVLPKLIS

MAPK1(h) = biological target: T3, MAPK1(h) (Homo sapiens, UniProt P27361)
T3 construct: purchased Eurofins (KinaseProfiler)
T3 sequence (P27361 whole entry): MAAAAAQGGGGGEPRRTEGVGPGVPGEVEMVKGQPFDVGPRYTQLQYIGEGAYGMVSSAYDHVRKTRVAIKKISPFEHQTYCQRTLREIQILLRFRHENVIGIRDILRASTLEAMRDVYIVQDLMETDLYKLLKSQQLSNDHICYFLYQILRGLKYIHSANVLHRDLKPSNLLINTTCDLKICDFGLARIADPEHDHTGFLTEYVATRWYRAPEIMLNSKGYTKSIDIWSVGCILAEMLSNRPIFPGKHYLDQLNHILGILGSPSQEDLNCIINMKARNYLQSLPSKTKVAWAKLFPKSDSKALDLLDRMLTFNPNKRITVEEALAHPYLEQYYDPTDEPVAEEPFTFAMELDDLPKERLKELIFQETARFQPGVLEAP

PKCθ(h) = biological target: T4, PKCθ(h) (Homo sapiens, UniProt Q04759)
T4 construct: purchased Eurofins (KinaseProfiler)
T4 sequence (Q04759 whole entry): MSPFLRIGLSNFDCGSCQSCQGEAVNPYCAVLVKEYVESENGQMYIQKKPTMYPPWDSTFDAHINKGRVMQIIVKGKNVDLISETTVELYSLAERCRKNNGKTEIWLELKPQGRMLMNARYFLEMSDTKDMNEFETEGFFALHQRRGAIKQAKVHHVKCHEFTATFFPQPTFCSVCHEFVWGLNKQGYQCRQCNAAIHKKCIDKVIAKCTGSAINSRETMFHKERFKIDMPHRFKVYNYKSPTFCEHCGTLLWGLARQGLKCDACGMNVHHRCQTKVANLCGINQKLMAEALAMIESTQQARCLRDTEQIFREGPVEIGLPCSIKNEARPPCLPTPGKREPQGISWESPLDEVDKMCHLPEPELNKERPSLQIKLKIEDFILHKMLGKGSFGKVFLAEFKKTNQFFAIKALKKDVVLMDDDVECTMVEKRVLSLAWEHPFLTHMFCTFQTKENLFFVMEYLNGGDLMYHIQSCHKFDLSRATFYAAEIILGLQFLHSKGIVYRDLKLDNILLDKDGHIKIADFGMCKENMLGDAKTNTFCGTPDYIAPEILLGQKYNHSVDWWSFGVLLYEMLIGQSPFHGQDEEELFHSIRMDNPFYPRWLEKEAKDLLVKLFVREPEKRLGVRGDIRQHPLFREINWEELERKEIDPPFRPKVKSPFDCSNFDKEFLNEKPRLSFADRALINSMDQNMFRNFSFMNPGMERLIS

TAK1(h) = biological target: T5, TAK1(h) (Homo sapiens, UniProt O43318)
T5 construct: purchased Eurofins (KinaseProfiler)
T5 sequence (O43318 1-303 limits assumed): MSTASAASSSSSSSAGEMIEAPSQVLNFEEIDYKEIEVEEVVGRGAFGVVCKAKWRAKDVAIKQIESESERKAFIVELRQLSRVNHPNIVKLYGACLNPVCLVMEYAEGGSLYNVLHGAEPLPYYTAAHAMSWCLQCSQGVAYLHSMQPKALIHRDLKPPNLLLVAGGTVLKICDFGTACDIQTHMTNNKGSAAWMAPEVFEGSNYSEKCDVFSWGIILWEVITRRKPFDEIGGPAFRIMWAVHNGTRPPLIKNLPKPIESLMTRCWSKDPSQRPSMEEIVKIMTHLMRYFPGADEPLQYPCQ

TLK2(h) = biological target: T6, TLK2(h) (Homo sapiens, UniProt Q86UE8)
T6 construct: purchased Eurofins (KinaseProfiler)
T6 sequence (Q86UE8 whole entry): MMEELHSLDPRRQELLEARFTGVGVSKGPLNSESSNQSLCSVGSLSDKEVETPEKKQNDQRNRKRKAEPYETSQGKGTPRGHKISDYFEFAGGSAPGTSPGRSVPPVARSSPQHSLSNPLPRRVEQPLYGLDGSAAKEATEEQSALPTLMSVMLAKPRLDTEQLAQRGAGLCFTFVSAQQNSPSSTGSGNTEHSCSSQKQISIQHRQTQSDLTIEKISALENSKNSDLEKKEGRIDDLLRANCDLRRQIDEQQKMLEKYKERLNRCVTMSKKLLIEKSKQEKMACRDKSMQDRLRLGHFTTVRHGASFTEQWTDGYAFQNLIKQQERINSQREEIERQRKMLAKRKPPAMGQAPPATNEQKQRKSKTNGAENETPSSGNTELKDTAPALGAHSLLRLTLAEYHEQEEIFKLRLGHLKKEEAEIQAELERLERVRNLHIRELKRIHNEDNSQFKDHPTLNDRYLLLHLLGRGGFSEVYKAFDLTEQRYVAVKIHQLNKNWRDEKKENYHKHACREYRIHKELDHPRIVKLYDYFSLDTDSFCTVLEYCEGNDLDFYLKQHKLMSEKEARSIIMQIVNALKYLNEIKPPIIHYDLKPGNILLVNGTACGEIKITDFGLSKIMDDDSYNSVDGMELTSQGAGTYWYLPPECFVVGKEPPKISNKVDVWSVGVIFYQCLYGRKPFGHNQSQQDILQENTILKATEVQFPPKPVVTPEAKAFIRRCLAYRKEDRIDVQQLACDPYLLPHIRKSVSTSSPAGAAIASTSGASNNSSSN

ZAP-70(h) = biological target: T7, ZAP-70(h) (Homo sapiens, UniProt P43403)
T7 construct: purchased Eurofins (KinaseProfiler)
T7 sequence (P43403 1-619): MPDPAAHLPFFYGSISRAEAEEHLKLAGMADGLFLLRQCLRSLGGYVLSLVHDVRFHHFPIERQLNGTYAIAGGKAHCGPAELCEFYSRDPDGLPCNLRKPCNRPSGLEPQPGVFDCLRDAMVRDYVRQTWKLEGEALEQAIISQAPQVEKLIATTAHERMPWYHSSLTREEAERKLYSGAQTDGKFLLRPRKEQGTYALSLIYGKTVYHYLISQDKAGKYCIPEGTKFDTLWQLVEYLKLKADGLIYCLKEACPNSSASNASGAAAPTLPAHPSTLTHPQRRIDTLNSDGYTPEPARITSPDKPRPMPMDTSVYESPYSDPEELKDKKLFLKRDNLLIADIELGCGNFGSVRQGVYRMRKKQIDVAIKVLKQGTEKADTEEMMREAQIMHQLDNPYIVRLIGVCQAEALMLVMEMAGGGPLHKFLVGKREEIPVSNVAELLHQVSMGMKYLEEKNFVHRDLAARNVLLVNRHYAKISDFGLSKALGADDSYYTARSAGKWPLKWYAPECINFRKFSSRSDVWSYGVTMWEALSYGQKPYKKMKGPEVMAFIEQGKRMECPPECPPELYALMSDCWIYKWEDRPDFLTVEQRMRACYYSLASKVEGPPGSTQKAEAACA

COc1cc(OC)c(Cl)c(-c2ccc3c(NC(=O)c4ccc(N5CCNC(C)(C)C5)cc4)n[nH]c3n2)c1Cl [3D185]
inhibition at 0.01 µM (CLIK1(h); 10 nM): 0%
inhibition at 0.1 µM (CLIK1(h); 100 nM): -1%
inhibition at 1 µM (CLIK1(h); 1000 nM): 12%
inhibition at 0.01 µM (DYRK3(h); 10 nM): -24%
inhibition at 0.1 µM (DYRK3(h); 100 nM): -31%
inhibition at 1 µM (DYRK3(h); 1000 nM): -27%
inhibition at 0.01 µM (MAPK1(h); 10 nM): -5%
inhibition at 0.1 µM (MAPK1(h); 100 nM): -6%
inhibition at 1 µM (MAPK1(h); 1000 nM): 0%
inhibition at 0.01 µM (PKCθ(h); 10 nM): -3%
inhibition at 0.1 µM (PKCθ(h); 100 nM): -4%
inhibition at 1 µM (PKCθ(h); 1000 nM): 1%
inhibition at 0.01 µM (TAK1(h); 10 nM): -6%
inhibition at 0.1 µM (TAK1(h); 100 nM): 11%
inhibition at 1 µM (TAK1(h); 1000 nM): 13%
inhibition at 0.01 µM (TLK2(h); 10 nM): 0%
inhibition at 0.1 µM (TLK2(h); 100 nM): -1%
inhibition at 1 µM (TLK2(h); 1000 nM): -1%
inhibition at 0.01 µM (ZAP-70(h); 10 nM): 12%
inhibition at 0.1 µM (ZAP-70(h); 100 nM): 0%
inhibition at 1 µM (ZAP-70(h); 1000 nM): 8%
